Tests used:
MAPK14 (human) = MAPK14 (human) (UniProt Q16539); test: In vitro Inhibition of TNF-alpha Production in PBMC Cells
MAPK14 (BALB/cJ mice) = test: In vivo Inhibition of LPS-induced TNF-alpha Production; conditions: dose or concentration not given here

MAPK14 (human), sequence (Q16539 whole entry, looked up): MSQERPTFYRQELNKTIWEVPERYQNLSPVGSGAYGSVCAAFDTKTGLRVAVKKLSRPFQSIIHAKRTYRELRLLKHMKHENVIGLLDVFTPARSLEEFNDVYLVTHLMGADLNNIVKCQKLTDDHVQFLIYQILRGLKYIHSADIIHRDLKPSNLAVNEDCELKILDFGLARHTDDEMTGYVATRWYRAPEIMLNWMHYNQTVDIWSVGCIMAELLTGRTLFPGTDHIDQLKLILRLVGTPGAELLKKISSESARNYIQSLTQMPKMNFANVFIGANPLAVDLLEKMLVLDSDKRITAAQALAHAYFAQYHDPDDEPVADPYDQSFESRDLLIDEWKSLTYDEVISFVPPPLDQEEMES

Row | Structure (SMILES) | IC50 (MAPK14 (human)) [nM] | inhibition (MAPK14 (BALB/cJ mice)) [%]
1 | COC(=O)c1c(-c2ccc(F)cc2)c(-c2ccncc2)c(NC(C)=O)n1C | 1490 | 
2 | CCNC(=O)N1CCN(c2c(-c3ccncc3)c(-c3ccc(F)cc3)c(C(=O)OC)n2C)CC1 | 2920 | -38
3 | Cn1cc(-c2ccc(F)cc2)c(-c2ccncc2)c1N1CCNCC1 | 15 | 75
4 | CCN1CCN(c2c(-c3ccncc3)c(-c3ccc(F)cc3)c(C(=O)OC)n2C)CC1 | 135 | 67.8
5 | CCOC(=O)c1c(-c2ccc(C)cc2)c(-c2ccncc2)c(Br)n1C | 736 | -76
6 | COC(=O)c1c(-c2ccc(F)cc2)c(-c2ccncc2)c(NCc2cccc(OC)c2)n1C | 407 | 63
7 | CCOC(=O)c1c(-c2ccc(F)cc2)c(-c2ccncc2)c(N2CCNCC2)n1C | 16 | 79
8 | Fc1ccc(-c2cn3c(c2-c2ccncc2)CNCC3)cc1 | 208 | 71
9 | COC(=O)c1c(-c2ccc(F)cc2)c(-c2ccncc2)c(NCCNC(=O)OC(C)(C)C)n1C | 1640 | 
10 | CCCc1c(-c2ccnc(N[C@@H](C)COC)n2)c(-c2ccc(F)cc2)cn1CCN1CCOCC1 | 1 | -1
11 | COC(=O)CCn1c(C#CCCO)c(-c2ccncc2)c(-c2ccc(F)cc2)c1C(=O)OC | 5280 | 
12 | COC(=O)c1c(-c2ccc(F)cc2)c(-c2ccncc2)cn1C(C)=O | 194 | -32.1
13 | OCc1c(-c2ccc(F)cc2)c(-c2ccncc2)cn1CCN1CCOCC1 | 277 | -50
14 | Cn1c(Br)c(-c2ccncc2)c(-c2ccc(F)cc2)c1C(=O)OC(C)(C)C | 1890 | -7
15 | COC(=O)c1c(-c2ccncc2)c(-c2ccc(F)cc2)c(Br)n1C | 180 | -6
16 | CCCc1c(-c2ccnc(N[C@@H](C)COC)n2)c(-c2ccc(F)cc2)cn1C(=O)OC(C)(C)C | 50 | 
17 | CNC(=O)c1c(-c2ccc(F)cc2)c(-c2ccncc2)cn1C | 1480 | 
18 | COC(=O)c1c(-c2ccc(F)cc2)c(-c2ccncc2)c2n1CCC2C (stereo unspecified) | 208 | 
19 | COC(=O)c1c(-c2ccc(F)cc2)c(-c2ccncc2)c(N2CCN(C3CCCC3)CC2)n1C | 139 | 48.6

Row | Structure (SMILES) | IC50 (MAPK14 (human)) [nM] | inhibition (MAPK14 (BALB/cJ mice)) [%]
20 | CCC(=O)c1c(-c2ccc(F)cc2)c(-c2ccncc2)c(N2CCNCC2)n1C | 67 | 32
21 | COC(=O)c1c(-c2ccc(F)cc2)c(-c2ccncc2)c(N2CCC(N)C2)n1C (stereo unspecified) | 237 | 25
22 | CN(CCN1CCOCC1)c1c(-c2ccncc2)c(-c2ccc(F)cc2)cn1C | 117 | 
23 | CCCc1c(-c2ccnc(SC)n2)c(-c2ccc(F)cc2)cn1CCCN(C)C | 148 | -37
24 | Cn1cc(-c2ccncc2)c(-c2ccc(F)cc2)c1-c1ncc(-c2ccccc2)o1 | 1030 | 
25 | CC(O)c1c(-c2ccc(F)cc2)c(-c2ccncc2)cn1C (stereo unspecified) | 1450 | 
26 | COC(=O)c1c(-c2ccc(F)cc2)c(-c2ccncc2)c(Nc2ccc(N3CCOCC3)cc2)n1C | 1560 | 29
27 | CC(=O)N1CCN(c2c(-c3ccncc3)c(-c3ccc(F)cc3)c(-c3nnco3)n2C)CC1 |  | 19
28 | COC(=O)c1c(-c2ccc(F)cc2)c(-c2ccncc2)c(NCCN2CCCCC2)n1C | 92 | -36
29 | COC(=O)c1c(-c2ccc(F)cc2)c(-c2ccncc2)c(N2CCN(C(C)=O)CC2)n1C | 1530 | 57
30 | COC(=O)c1c(-c2ccc(F)cc2)c(-c2ccncc2)c(-c2cccc(NC(C)=O)c2)n1C | 2 | 59
31 | CCn1cc(-c2ccncc2)c(-c2ccc(F)cc2)c1CO | 70 | 48
32 | COC(=O)c1c(-c2ccc(F)cc2)c(-c2ccncc2)c(Nc2cccnc2)n1C | 57 | -10.5
33 | COC(=O)c1c(-c2ccc(F)cc2)c(-c2ccncc2)c(NCCc2ccncc2)n1C | 145 | 
34 | CCOC(=O)c1c(-c2ccc(Br)cc2)c(-c2ccncc2)cn1C | 211 | 
35 | COC(=O)c1c(-c2ccc(F)cc2)c(-c2ccncc2)c(N(C)CCN2CCOCC2)n1C | 38 | 
36 | COCC#Cc1c(-c2ccc(F)cc2)c(-c2ccncc2)c(C(=O)OC)n1C | 443 | -5
37 | COC(=O)C1CCn2cc(-c3ccncc3)c(-c3ccc(F)cc3)c2C1=O (stereo unspecified) | 326 | -9

From the Kinase Knowledgebase extract (Sharma et al. 2016)
